The values that follow come from US9493451B2 (Bionomics Limited, priority 2011, dated 2016).

SMILES strings stand for the structures.

In the experiment the target is T1, Kv1.3 (Homo sapiens, UniProt P22001).
T1 construct: expressed in transfected cells; host or cells: CHO (Kv1.3/CHO)
T1 sequence (P22001 whole entry): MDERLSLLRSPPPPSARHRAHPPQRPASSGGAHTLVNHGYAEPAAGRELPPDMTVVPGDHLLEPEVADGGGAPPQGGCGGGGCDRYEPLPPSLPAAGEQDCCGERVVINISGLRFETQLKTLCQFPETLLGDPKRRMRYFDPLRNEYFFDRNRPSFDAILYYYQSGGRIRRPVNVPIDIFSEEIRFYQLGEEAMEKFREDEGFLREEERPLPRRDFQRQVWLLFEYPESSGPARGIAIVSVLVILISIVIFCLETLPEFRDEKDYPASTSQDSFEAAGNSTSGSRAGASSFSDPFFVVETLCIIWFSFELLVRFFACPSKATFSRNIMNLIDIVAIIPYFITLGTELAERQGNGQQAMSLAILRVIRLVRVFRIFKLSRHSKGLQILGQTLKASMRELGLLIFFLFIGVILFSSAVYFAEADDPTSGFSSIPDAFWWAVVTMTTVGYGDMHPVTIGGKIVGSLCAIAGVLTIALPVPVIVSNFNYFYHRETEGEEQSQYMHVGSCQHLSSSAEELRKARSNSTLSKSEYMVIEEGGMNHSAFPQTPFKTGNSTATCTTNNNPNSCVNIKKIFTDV
As to the kind of experiment: Electrophysiology: planar patch-clamp of Kv1.3 currents, IC50 from steady state current amplitude. Conditions: Kv1.3 electrophysiology, results according to Method D1, read-out: IC50 (Kv1.3 ephys steady state). The experiment is classed as cell-based. The protocol: The inhibition data shown for the compounds of the list below was calculated using the steady state current amplitude at the end of the depolarising pulse in patch clamp evaluations (as described in the Biology Protocols: 1. Electrophysiology).
Kv1.x currents were measured in Kv1.3/CHO or Kv1.5/CHO cells using a planar electrode version (Nanion Technologies GMBH) of the patch-clamp technique. Whole-cell Kv1.x current transients were evoked by 500 ms depolarising voltage pulses to +40 mV from a holding potential of −80 mV applied at 10 s intervals for Kv1.5 and at 30 s intervals for Kv1.3 to allow adequate time for recovery from inactivation. Cells were continuously bathed in a buffered saline solution containing (mM): 160 NaCl, 4.5 KCl, 2 CaCl2, 1 MgCl2, 5 glucose, 10 HEPES, pH 7.4, 290-310 mOsm·Kg^−1. The internal (pipette) solution contained (mM): 10 NaCl, 70 KF, 75 KCl, 2 MgCl2, 10 HEPES, 10 EGTA, pH 7.2, 290-310 mOsm·Kg^−1. Series resistance compensation (60-80%) was applied to cells in which the peak current amplitude exceeded 2 nA.
Compound Preparation and Potency Assessment
Compounds were initially dissolved in DMSO to 10 mM. After further dilution in DMSO, compounds were finally diluted in bath solution 1/200 (to give a final DMSO concentration of 0.5%) and applied directly to the recording chamber. Compounds were added at increasing concentrations allowing ample time for steady state block to be achieved between each concentration. Each compound was tested at 5-6 different concentrations on 2-3 cells. Compound IC50 values were determined by fitting the average normalised reduction of either the current integral or the steady state current amplitude at the end of the 500 ms depolarising pulse obtained at each compound concentration to the Hill equation. The IC50 data reported herein is based on the steady state calculation.
(In general: The patch-clamp technique gives a direct electrical read-out from membranes.)
With `CN1C2CCC1CC(N(C(=O)CS(=O)(=O)c1ccccc1)C(c1ccc(Cl)cc1)C1CC1)C2` (racemic) [Example 93, N-[(4-chlorophenyl)(cyclopropyl)methyl]-N-(8-methyl-8-azabicyclo[3.2.1]oct-3-yl)-2-(phenylsulfonyl)acetamide], the IC50 (in general, the concentration needed to halve the response being measured) was in the range of 0.05 to 0.2 µM.

In the case of `CC(CC(=O)N(Cc1ccc(C(F)(F)F)nc1)C(C)c1ccc2c(c1)CCC2)c1ccc(F)cc1` (single isomer, unassigned) [Compound 39, N-[1-(2,3-dihydro-1H-inden-5-yl)ethyl]-3-(4-fluorophenyl)-N-{[6-(trifluoromethyl)pyridin-3-yl]methyl}butanamide], the IC50 lay within 0.05 to 0.2 µM.

Consider `CC(CC(=O)N(Cc1ccc(C(F)(F)F)nc1)C(C)c1ccc2c(c1)CCC2)c1ccc(F)cc1` (single isomer, unassigned) [Compound 40, N-[1-(2,3-dihydro-1H-inden-5-yl)ethyl]-3-(4-fluorophenyl)-N-{[6-(trifluoromethyl)pyridin-3-yl]methyl}butanamide], for which the IC50 was in the range of 0.05 to 0.2 µM.

Consider `C[C@H](CC(=O)N(Cc1ccccn1)C(c1ccc(Cl)cc1)C1CC1)c1ccc(F)cc1` (single isomer, unassigned) [Example 5], for which the IC50 is < 0.05 µM.

Turning to `C[C@@H](CC(=O)N(Cc1ccccn1)C(c1ccc(Cl)cc1)C1CC1)c1ccc(F)cc1` (single isomer, unassigned) [Example 8], the IC50 was < 0.05 µM.

Take `CC(CC(=O)N(Cc1ccccn1)C(c1ccc2c(c1)S(=O)(=O)C(C)(C)O2)C1CC1)c1ccc(F)cc1` (single isomer, unassigned) [Example 74, N-[cyclopropyl(2,2-dimethyl-3,3-dioxido-1,3-benzoxathiol-5-yl)methyl]-3-(4-fluorophenyl)-N-(pyridin-2-ylmethyl)butanamide]: the IC50 was < 0.05 µM.

For the compound `C[C@@H](CC(=O)N(Cc1ccccn1)[C@H](c1ccc(Cl)cc1)C1CC1)S(=O)(=O)c1ccc(F)cc1` (single isomer, unassigned) [Example 76, N-[(4-chlorophenyl)(cyclopropyl)methyl]-3-[(4-fluorophenyl)sulfonyl]-N-(pyridin-2-ylmethyl)butanamide], the IC50 is < 0.05 µM.

With `CC(C)[C@@H](c1ccc(F)cc1)N(CCN1CCC(F)CC1)C(=O)C1(S(=O)(=O)c2ccc(F)cc2)CC1` (single isomer, unassigned) [Example 94], the IC50 lay in the range of 0.05 to 0.2 µM.

On to `O=C(CC1(c2ccc(F)cc2)CC1)N(Cc1ccccn1)[C@@H](c1ccc(Cl)cc1)C1CC1` (single isomer, unassigned) [Example 95, N-[(4-chlorophenyl)(cyclopropyl)methyl]-2-[1-(4-fluorophenyl)cyclopropyl]-N-(pyridin-2-ylmethyl)acetamide], for which the IC50 was < 0.05 µM.

For the compound `C[C@@H](CC(=O)N(Cc1ccccn1)C1(c2cccc(Br)c2)CC1)c1ccc(F)cc1` (single isomer, unassigned) [Example 96], the concentration for half-maximal inhibition (IC50) was 0.05 to 0.2 µM.

Consider `CCS(=O)(=O)c1cccc([C@@H](C2CC2)N(Cc2ccc(C(F)(F)F)nc2)C(=O)[C@@H]2C[C@H]2c2ccc(F)cc2)c1` (single isomer, unassigned) [Example 99], for which the IC50 was < 0.05 µM.

In the case of `CC(C(=O)N(Cc1ccccn1)C(c1ccc(Cl)cc1)C1CC1)S(=O)(=O)c1ccc(F)cc1` (single isomer, unassigned) [Example 296], the concentration for half-maximal inhibition (IC50) was < 0.05 µM.

`CC(C(=O)N(Cc1ccccn1)C(c1ccc(Cl)cc1)C1CC1)S(=O)(=O)c1ccc(F)cc1` (single isomer, unassigned) [Example 297]: the IC50 was in the range of 0.2 to 1 µM.

In the case of `O=C(C1C[C@H]1c1ccc(F)cc1)N(Cc1ccccn1)[C@@H](c1ccc(Cl)cc1)C1CC1` (stereo in doubt) [Example 13, N-[(4-chlorophenyl)(cyclopropyl)methyl]-2-(4-fluorophenyl)-N-(pyridin-2-ylmethyl)cyclopropanecarboxamide], the IC50 lay in the range of 0.05 to 0.2 µM.

Take `O=C([C@H]1C[C@@H]1c1ccc(F)cc1)N(Cc1ccccn1)[C@@H](c1ccc(Cl)cc1)C1CC1` (stereo in doubt) [Example 14, N-[(4-chlorophenyl)(cyclopropyl)methyl]-2-(4-fluorophenyl)-N-(pyridin-2-ylmethyl)cyclopropanecarboxamide]: the IC50 was < 0.05 µM.

For the compound `O=C(C1CC1c1ccc(F)cc1)N(Cc1ccccn1)C(c1ccc(Cl)cc1)C1CC1` (stereo not drawn) [Example 10, N-[(4-chlorophenyl)(cyclopropyl)methyl]-2-(4-fluorophenyl)-N-(pyridin-2-ylmethyl)cyclopropanecarboxamide], the IC50 was 0.05 to 0.2 µM.

For the compound `COc1ccccc1[C@H](C)N(Cc1ccccn1)C(=O)CCc1ccc(F)cc1` [Example 55, 3-(4-fluorophenyl)-N-[(1S)-1-(2-methoxyphenyl)ethyl]-N-(pyridin-2-ylmethyl)propanamide], the IC50 was 0.2 to 1 µM.

As for `COc1ccccc1[C@@H](C)N(Cc1ccccn1)C(=O)CCc1cccc(C(F)(F)F)c1` [Example 61, N-[(1R)-1-(2-methoxyphenyl)ethyl]-N-(pyridin-2-ylmethyl)-3-[3-(trifluoromethyl)phenyl]propanamide], the IC50 lay in the range of 0.05 to 0.2 µM.

Turning to `CC(c1ccc2c(c1)[S+]([O-])C(C)(C)O2)N(Cc1ccccn1)C(=O)CCc1cccc(C(F)(F)F)c1` (stereo not drawn) [Example 63, N-[1-(2,2-dimethyl-3-oxido-1,3-benzoxathiol-5-yl)ethyl]-N-(pyridin-2-ylmethyl)-3-[3-(trifluoromethyl)phenyl]propanamide], the IC50 was 1 to 2 µM.

As for `CN1C2CCC1CC(N(C(=O)CS(=O)(=O)c1ccc(F)cc1)C(c1ccc(Cl)cc1)C1CC1)C2` (stereo not drawn) [Example 80, N-[(4-chlorophenyl)(cyclopropyl)methyl]-2-[(4-fluorophenyl)sulfonyl]-N-(8-methyl-8-azabicyclo[3.2.1]octan-3-yl)acetamide], the IC50 lay within 0.2 to 1 µM.

In the case of `CCc1noc(C(C)N(Cc2ccccn2)C(=O)CC(C)c2ccc(F)cc2)n1` (stereo not drawn) [Example 87], the IC50 fell in the range of 0.2 to 1 µM.

In the case of `COc1ccc(CN(C(=O)CC(C)S(=O)(=O)c2ccc(F)cc2)C(c2ccc(OC(F)F)cc2)C2CC2)cn1` (stereo not drawn) [Example 88, N-{cyclopropyl[4-(difluoromethoxy)phenyl]methyl}-3-[(4-fluorophenyl)sulfonyl]-N-[(6-methoxypyridin-3-yl)methyl]butanamide], the IC50 was in the range of 0.05 to 0.2 µM.

As for `O=C(CC1(c2ccc(F)cc2)CC1)N(Cc1cccnn1)[C@@H](c1ccc(OC(F)F)cc1)C1CC1` [Example 89, N—{(R)-cyclopropyl[4-(difluoromethoxy)phenyl]methyl}-2-[1-(4-fluorophenyl)cyclopropyl]-N-(pyridazin-3-ylmethyl)acetamide], the IC50 was < 0.05 µM.

As for `O=C(N(Cc1ccccn1)[C@@H](c1ccc(OC(F)F)cc1)C1CC1)C1(S(=O)(=O)c2ccc(F)cc2)CC1` [Example 91, N-{cyclopropyl[4-(difluoromethoxy)phenyl]methyl}-1-[(4-fluorophenyl)sulfonyl]-N-(pyridin-2-ylmethyl)cyclopropanecarboxamide], the IC50 lay in the range of 0.2 to 1 µM.

With `O=C(N(Cc1ccccn1)[C@H](c1ccc(OC(F)F)cc1)C1CC1)C1(S(=O)(=O)c2ccc(F)cc2)CC1` [Example 92, N-{cyclopropyl[4-(difluoromethoxy)phenyl]methyl}-1-[(4-fluorophenyl)sulfonyl]-N-(pyridin-2-ylmethyl)cyclopropanecarboxamide], the IC50 lay in the range of 0.2 to 1 µM.

With `O=C([C@@H]1C[C@H]1c1ccc(F)cc1)N(Cc1cccnn1)[C@@H](c1ccc(OC(F)F)cc1)C1CC1` [Example 97, (1R,2R)-2-(4-Fluoro-phenyl)-cyclopropanecarboxylic acid [(R)-cyclopropyl-(4-difluoromethoxy-phenyl)-methyl]-pyridazin-3-ylmethyl-amide], the IC50 is < 0.05 µM.

In the case of `O=C([C@@H]1C[C@H]1c1ccc(F)cc1)N(Cc1cccnn1)[C@H](c1ccc(OC(F)F)cc1)C1CC1` [Example 98, (1R,2R)-2-(4-Fluoro-phenyl)-cyclopropanecarboxylic acid [(S)-cyclopropyl-(4-difluoromethoxy-phenyl)-methyl]-pyridazin-3-ylmethyl-amide], the IC50 is 0.05 to 0.2 µM.

Turning to `CCS(=O)(=O)c1cccc([C@H](C2CC2)N(Cc2ccc(C(F)(F)F)nc2)C(=O)[C@@H]2C[C@H]2c2ccc(F)cc2)c1` [Example 100, (1R, 2R)-2-(4-Fluoro-phenyl)-cyclopropanecarboxylic acid [(S)-cyclopropyl-(3-ethanesulfonyl-phenyl)-methyl]-(6-trifluoromethyl-pyridin-3-ylmethyl)-amide], the IC50 lay within 0.05 to 0.2 µM.

On to `CC(C)(c1ccccc1)N(Cc1ccccn1)C(=O)CS(=O)(=O)c1ccc(F)cc1` [Example 101, 2-(4-Fluorophenylsulfonyl)-N-(2-phenylpropan-2-yl)-N-(pyridine-2-ylmethyl)acetamide], for which the IC50 was 0.2 to 1 µM.

In the case of `CC(C)C(c1ccc(OC(F)F)cc1)N(Cc1ccc(F)cn1)C(=O)C1CC1c1ccc(F)cc1` (stereo not drawn) [Example 110], the IC50 was < 0.05 µM.
